The record followed here is patent US20110111115A1, “REBAUDIOSIDE A POLYMORPHS AND METHODS TO PREPARE THEM” (priority 2009, published 2011).

A short description of this series: Solubility in water of the rebaudioside A polymorph. The class given is physicochemical. The conditions noted are these: 25° C.

`C=C1C[C@@]23CC[C@H]4[C@@](C)(CCC[C@@]4(C)C(=O)O[C@@H]4O[C@H](CO)[C@@H](O)[C@H](O)[C@H]4O)[C@@H]2CC[C@]1(O[C@@H]1O[C@H](CO)[C@@H](O)[C@H](O[C@@H]2O[C@H](CO)[C@@H](O)[C@H](O)[C@H]2O)[C@H]1O[C@@H]1O[C@H](CO)[C@@H](O)[C@H](O)[C@H]1O)C3` [rebaudioside A polymorph, rebaudioside A]: the solubility in water entry is “about 1.5 mg/ml”.
